# Where two headings read alike, the source gives them in different places.
# Experiments:
# NA transporter = biological target: T1, NA transporter (Rattus norvegicus, UniProt Q63380); test: Inhibition of noradrenaline uptake in rat brain synaptosomes; format: biochemical; conditions: read-out: % Inhibition of NA uptake [10 μM]
# T1 construct: from tissue; host or cells: rat brain synaptosomes (P2 fraction) from hypothalamus
# Protocol: II. […] For in vitro studies, synaptosomes of rat brain areas are freshly isolated, as described in the article “The isolation of nerve endings from brain” by E. G. Gray and […]. Anatomy 96, pages 79-88, 1962. The relevant literature reference is enclosed herein by reference and is to be regarded as part of the disclosure. […] The homogenate is centrifuged at 4° C. for 10 minutes at 1000 g. […] The respective uptake was measured in a 96 well microtiter plate. The volume was 250 μL and the incubation was carried out at room temperature (ca 20-25° C.) under a blanket of oxygen. […] The 96 samples through were then filtered through a Unifilter GF/B® microtiter plate (Packard) and washed with 200 mL of incubated buffer with the aid of a “Brabdel Cell-Harvester MPXRI 96T”. The Unifilter GF/B plate was dried at 55° C. over a period of 1 h. The plate was then sealed with a back seal® (Packard) and there were then added 35 μL of scintillant fluid per well (Ultima Gold, Packard). Following sealing with a top seal® (Packard) and following adjustment of the equilibrium (approximately over a period of 5 h), the radioactivity is determined in a 1450 Microbeta® (Wallac). […] The amount of protein used in the above determination corresponded to the values known from the literature, such as is described in “Protein measurement with the folin phenol reagent”, Lowry et al., J. Biol. Chem., 193, 265-275, 1951. A detailed description of the method is disclosed in the literature, for example, in […], and B. […] The relevant literature references are incorporated herein by reference and are to be regarded as part of the disclosure.
# 5-HT uptake = biological target: T2, 5-HT uptake (Rattus norvegicus, UniProt P31652); test: Inhibition of 5-HT uptake in rat brain synaptosomes; format: biochemical; conditions: rat synaptosomes (medulla and pons), [3H]-5-HT
# T2 construct: from tissue; host or cells: rat brain synaptosomes (P2 fraction) from marrow (medulla) and pons
# [1] = tested on: phenylquinone-induced writhing reactions in mice; test: Analgesic test using the phenylquinone-induced writhing test on mice; format: in vivo, mouse; conditions: male NMRI mice, phenylquinone i.p.
# Protocol: I. Analgesic Test Using the Writhing Test on Mice
# The analysis of analgesic activity is carried out using the phenylquinone-induced writhing assay in mice, modified as described in the article by I. C. Hendershot and J. Forsaith ((1959) in J. Pharmacol. Exp. Ther. 125, 237-240. The relevant description is incorporated herein by reference and is to be regarded as part of the present disclosure.
# For the present purpose, male NMRI mice are used having a weight of from 25 to 30 g. Groups of 10 animals per substance dose receive, 10 minutes after an intravenous dose of test substances, an intraperitoneal administration of 0.3 ml/mouse of a 0.02% strength aqueous solution of phenylquinone (phenylbenzoquinone, obtainable from Sigma, Deisenhofen; solution produced with the addition of 5% of ethanol and storage in a water bath at 45° C.). The animals are placed individually in observation cages. Using a pushbutton counter, the number of pain-induced stretching movements (so-called writhing reactions=straightening of the body accompanied by stretching of the rear extremities) was counted over a period of from 5 to 20 minutes following the administration of phenylquinone. The control is provided by animals receiving only physiological saline. All substances are tested using the standard dosage of 10 mg/kg. […]
# [2] = 10 μM, rat synaptosomes (hypothalamus), [3H]-NA
# T1 sequence (Q63380 1-617): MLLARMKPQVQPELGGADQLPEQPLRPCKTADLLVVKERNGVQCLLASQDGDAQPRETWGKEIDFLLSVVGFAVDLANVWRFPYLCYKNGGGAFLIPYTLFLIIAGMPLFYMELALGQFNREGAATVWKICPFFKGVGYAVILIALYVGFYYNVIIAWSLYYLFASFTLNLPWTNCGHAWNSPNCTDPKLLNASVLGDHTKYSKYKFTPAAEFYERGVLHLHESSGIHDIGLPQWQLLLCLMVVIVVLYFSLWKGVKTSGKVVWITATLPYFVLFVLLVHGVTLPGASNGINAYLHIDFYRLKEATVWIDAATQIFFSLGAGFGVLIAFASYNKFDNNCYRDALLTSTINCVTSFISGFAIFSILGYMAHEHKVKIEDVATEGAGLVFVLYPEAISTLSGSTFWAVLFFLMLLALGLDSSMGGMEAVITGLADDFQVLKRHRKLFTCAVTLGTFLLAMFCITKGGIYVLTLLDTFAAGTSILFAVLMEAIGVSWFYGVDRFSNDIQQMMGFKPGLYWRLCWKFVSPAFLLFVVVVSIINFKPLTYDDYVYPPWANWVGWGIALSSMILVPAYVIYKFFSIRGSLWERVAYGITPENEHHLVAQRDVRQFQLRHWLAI
# T2 sequence (P31652 whole entry): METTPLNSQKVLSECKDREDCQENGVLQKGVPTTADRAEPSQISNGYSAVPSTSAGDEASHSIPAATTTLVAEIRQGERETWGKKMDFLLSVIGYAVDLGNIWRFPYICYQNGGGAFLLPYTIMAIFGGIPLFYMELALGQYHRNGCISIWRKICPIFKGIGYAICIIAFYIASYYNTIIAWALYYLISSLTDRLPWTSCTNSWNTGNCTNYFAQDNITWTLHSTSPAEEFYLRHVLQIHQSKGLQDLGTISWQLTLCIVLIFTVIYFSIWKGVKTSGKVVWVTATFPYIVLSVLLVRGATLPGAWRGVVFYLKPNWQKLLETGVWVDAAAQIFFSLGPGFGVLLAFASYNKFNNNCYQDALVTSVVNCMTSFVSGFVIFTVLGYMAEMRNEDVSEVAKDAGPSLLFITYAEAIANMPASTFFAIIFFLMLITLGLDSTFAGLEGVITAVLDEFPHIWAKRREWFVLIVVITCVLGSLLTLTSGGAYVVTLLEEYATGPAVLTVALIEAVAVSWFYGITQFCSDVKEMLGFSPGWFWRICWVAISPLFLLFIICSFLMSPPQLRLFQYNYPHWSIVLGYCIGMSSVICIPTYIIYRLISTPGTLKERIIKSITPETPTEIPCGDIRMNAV
inhibition at 10 µM (NA transporter; [2]),inhibition at 10 µM (5-HT uptake),SMILES,% Inhibition of writhing reactions at 10 mg/kg intravenous [1],inhibition at 10 µM (NA transporter)
41%,54%,"O=C(CC1CCCCC1)Nc1nc2c(s1)CCCC2C(=O)NCC1CCN(Cc2c(F)cccc2Cl)C1 (stereo not shown) [Example 78, 2-(2-Cyclohexylacetylamino)-4,5,6,7-tetrahydrobenzthiazol-4-carboxylic acid [1-(2-chloro-6-fluorobenzyl)pyrrolidin-3-yl]methylamide]",,
80%,50%,"O=C(Cc1ccc(F)cc1)Nc1nc2c(s1)CCCC2C(=O)N1CCN(c2ccccc2Cl)CC1 (stereo not shown) [Example 81, N-{4-[4-(2-Chlorophenyl)piperazin-1-carbonyl]-4,5,6,7-tetrahydrobenzthiazol-2-yl}-2-(4-fluorophenyl)acetamide]",,
64%,41%,"CC(C)(C)CC(=O)Nc1nc2c(s1)CCCC2C(=O)N1CCN(Cc2ccccc2)CC1 (stereo not shown) [Example 82, N-[4-(4-Benzylpiperazin-1-carbonyl)-4,5,6,7-tetrahydrobenzthiazol-2-yl]-3,3-dimethylbutyramide]",,
46%,56%,"CC(C)(C)CC(=O)Nc1nc2c(s1)CCCC2C(=O)N1CCN(CC=Cc2ccccc2)CC1 (stereo not shown) [Example 87, 3,3-Dimethyl-N-{4-[4-(3-phenylallyl)piperazin-1-carbonyl]-4,5,6,7-tetrahydrobenzthiazol-2-yl}butyramide]",,
,,"O=C(Nc1nc2c(s1)CCCC2C(=O)N1CCN(c2ccccc2)CC1)c1ccco1 (stereo not shown) [Example 89, Furan-2-carboxylic acid[4-(4-phenylpiperazin-1-carbonyl)-4,5,6,7-tetrahydrobenzthiazol-2-yl]amide]",41%,77%
